Paper PMC6777825, “Differential scanning fluorimetric analysis of the amino-acid binding to taste receptor using a model receptor protein, the ligand-binding domain of fish T1r2a/T1r3” (PLoS ONE, 2019)
Like-named read-outs stand apart in the source and are kept apart here.

Legend:
[1] = target: medaka T1r2a/T1r3LBD (Oryzias latipes, UniProt A0A173M094+A0A173M0G2); experiment: Differential scanning fluorimetry (DSF) thermal shift ligand-binding assay; set-up: species or system O. latipes; conditions: for ΔTm: average ± s.e.m., n = 4; for potency estimated from few doses: ΔH0 72.1 kcal mol-1, read-out: Kd-app estimated at a single ligand concentration
Sequence of medaka T1r2a/T1r3LBD (A0A173M094 entry or part of it): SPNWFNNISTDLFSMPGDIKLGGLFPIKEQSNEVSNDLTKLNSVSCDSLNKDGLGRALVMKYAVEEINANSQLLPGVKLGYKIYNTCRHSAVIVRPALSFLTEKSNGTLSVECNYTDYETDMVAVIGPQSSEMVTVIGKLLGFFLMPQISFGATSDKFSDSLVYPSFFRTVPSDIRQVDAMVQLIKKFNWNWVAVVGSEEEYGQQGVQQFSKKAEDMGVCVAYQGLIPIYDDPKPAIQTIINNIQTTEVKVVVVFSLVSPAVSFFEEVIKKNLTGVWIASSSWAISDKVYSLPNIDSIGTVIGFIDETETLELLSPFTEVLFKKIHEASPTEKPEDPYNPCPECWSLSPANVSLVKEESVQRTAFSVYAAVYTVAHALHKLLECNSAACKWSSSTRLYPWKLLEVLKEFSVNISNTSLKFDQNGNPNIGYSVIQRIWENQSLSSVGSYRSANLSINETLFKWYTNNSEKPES
Sequence of medaka T1r2a/T1r3LBD (A0A173M0G2 entry or part of it): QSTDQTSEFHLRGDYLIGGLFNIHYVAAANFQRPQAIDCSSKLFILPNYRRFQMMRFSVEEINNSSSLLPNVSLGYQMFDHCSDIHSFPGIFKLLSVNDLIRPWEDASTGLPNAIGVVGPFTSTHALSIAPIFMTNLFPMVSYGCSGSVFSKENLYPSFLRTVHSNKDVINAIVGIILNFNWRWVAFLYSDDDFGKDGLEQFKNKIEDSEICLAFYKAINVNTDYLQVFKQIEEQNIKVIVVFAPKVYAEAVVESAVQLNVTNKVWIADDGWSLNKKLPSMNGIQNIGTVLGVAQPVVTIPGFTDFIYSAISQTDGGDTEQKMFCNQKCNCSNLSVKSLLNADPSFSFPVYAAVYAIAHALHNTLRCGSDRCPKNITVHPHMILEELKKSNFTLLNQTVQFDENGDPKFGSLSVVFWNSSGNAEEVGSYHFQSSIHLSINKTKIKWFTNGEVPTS
Protocol: The protein sample was prepared as described previously. Briefly, Drosophila S2 cells (Invitrogen) stably expressing C-terminal FLAG-tagged T1r2aLBD and T1r3LBD [11, 21] were cultured in ExpressFiveSFM (LifeTechnologies) for five days at 27 °C. The T1r2a/T1r3-LBD protein was purified from the culture medium by the use of ANTI-FLAG M2 Affinity Gel (SIGMA). The purified protein was dialyzed against the assay buffer (20 mM Tris-HCl, 300 mM NaCl, 2 mM CaCl2, pH 8.0).
The protein sample (~1 μg) was mixed with Protein Thermal Shift Dye (Applied Biosystems) and 10~10,000 μM concentration of each amino acid in 20 μL of assay buffer and loaded to a MicroAmpR Fast Optical 48-Well Reaction Plate (Applied Biosystems). Specifically, to minimize the changes of the chemical and optical condition, the amino acid solutions were prepared by the exact same buffer used for the final dialysis of the protein, followed by the re-adjustment of the pH to ~ 8.0 by addition of either NaOH or HCl, and mixed with the protein diluted with the same buffer.
Fluorescent intensity was measured by the StepOne Real-Time PCR System (Applied Biosystems). The temperature was raised from 25 °C to 99 °C with a velocity of 0.022 °C/sec. The reporter and quencher for detection were set as “ROX” and “none”, respectively. Apparent melting transition temperature (Tm) was determined by the use of the maximum of the derivatives of the melt curve (dFluorescence/dT) by Protein Thermal Shift Software version 1.3 (Applied Biosystems).
The apparent dissociation constant (Kd-app) derived from the DSF results was estimated based on Eq 1 proposed by Schellman, assuming that the unfolding of the protein is reversible: ΔTm=Tm−T0=TmT0R/ΔH^0ln(1+[L]/Kd-app) (1) where [L] is the ligand concentration; Tm and T0 are the apparent melting transition temperatures in the presence and absence of the ligand; R is the gas constant; ΔH^0 is the enthalpy of unfolding at T0, assuming that there are no significant variations under the tested conditions. If the melt curves show biphasic profiles, the second (or the right side) Tm values were adopted for calculation, as described in the Results section.
For multiple regression analyses shown in Fig 2B, the apparent Tm values determined at different ligand concentrations were fitted to Eq 1 by using KaleidaGraph (Synergy Software), assuming that the change of the dissociation constant accompanied by the Tm shift is negligible.

[2] = test system: T1r2a/T1r3LBD; set-up: method as in Nuemket, Yasui, et al. [11]; conditions: ref Nuemket, Yasui, et al. [11]; read-out: FRET EC50; cited from earlier work
[3] = target: T1r2a/T1r3 full-length receptor (Oryzias latipes, UniProt A0A173M094+A0A173M0G2); experiment: Ca2+-flux receptor response assay in Flip-In 293 cells stably expressing full-length T1r2a, T1r3 and Gα16-gust44; type: cell-based, O. latipes; conditions: for ΔRFU: average ± s.e.m.
Sequence of T1r2a/T1r3 full-length receptor (A0A173M0G2 entry or part of it): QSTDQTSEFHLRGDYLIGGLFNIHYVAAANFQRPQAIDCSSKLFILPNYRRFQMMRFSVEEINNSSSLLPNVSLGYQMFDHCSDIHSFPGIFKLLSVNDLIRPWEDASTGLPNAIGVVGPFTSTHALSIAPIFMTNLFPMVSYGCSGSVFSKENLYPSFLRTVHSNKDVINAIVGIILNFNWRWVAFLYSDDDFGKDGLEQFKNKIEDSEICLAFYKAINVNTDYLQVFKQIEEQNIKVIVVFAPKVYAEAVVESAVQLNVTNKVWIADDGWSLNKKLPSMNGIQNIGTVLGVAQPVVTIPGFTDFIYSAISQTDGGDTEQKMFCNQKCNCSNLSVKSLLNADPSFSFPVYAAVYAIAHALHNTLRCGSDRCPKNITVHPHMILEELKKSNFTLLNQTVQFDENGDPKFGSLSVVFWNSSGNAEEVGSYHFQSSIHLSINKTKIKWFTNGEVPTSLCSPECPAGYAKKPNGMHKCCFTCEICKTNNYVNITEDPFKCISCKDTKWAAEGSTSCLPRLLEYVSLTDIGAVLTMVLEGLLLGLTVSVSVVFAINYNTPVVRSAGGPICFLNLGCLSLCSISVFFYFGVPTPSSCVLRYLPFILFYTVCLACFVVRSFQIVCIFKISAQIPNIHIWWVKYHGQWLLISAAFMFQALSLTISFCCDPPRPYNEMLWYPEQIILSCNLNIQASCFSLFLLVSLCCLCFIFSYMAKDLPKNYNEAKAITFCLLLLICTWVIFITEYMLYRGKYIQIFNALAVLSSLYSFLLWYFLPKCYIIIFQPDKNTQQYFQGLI
Sequence of T1r2a/T1r3 full-length receptor (A0A173M094 entry or part of it): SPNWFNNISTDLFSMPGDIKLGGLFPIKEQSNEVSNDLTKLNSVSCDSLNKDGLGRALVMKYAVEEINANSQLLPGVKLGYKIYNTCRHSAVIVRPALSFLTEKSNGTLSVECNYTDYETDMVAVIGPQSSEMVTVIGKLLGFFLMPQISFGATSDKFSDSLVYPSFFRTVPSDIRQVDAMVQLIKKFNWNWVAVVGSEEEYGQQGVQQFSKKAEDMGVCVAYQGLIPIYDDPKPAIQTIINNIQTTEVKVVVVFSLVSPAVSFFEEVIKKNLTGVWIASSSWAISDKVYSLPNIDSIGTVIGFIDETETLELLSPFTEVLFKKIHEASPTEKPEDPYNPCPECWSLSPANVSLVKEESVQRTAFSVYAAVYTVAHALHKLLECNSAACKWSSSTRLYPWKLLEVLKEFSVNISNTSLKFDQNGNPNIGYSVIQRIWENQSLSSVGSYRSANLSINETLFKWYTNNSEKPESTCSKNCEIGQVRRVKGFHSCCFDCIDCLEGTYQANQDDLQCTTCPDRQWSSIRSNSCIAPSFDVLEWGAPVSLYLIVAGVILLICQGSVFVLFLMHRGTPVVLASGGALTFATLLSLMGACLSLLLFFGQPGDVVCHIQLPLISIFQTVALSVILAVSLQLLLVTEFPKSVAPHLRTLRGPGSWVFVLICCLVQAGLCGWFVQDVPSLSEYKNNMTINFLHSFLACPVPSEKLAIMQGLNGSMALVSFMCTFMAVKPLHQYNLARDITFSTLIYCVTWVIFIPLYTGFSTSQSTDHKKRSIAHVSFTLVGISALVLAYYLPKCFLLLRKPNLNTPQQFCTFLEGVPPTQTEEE
Protocol: The Ca^2+-flux assay was performed using Flip-In 293 cell line (Life Technologies) stably expressing full-length T1r2a, T1r3, and Gα16-gust44 as described previously. The response stimulated by either 5 or 10 mM amino acid was represented asΔRFU (delta relative fluorescence unit) defined as the maximum fluorescence intensity induced by the addition of the amino acid, subtracted with that of an assay buffer in the absence of amino acid.

[4] = cited from earlier work; for pI: ref Handbook of Chemistry and Physics, CRC Press; for logKd_CW (polarity): transfer from cyclohexane to an aqueous solution, ref Radzicka & Wolfenden, Biochemistry, 27, 1664 (1988); for Es'c (steric effects) / πα (hydrophobicity) / HP (hydration potential): α-substituent group; for Es'c (steric effects) / πα (hydrophobicity): ref Akamatsu et al., J. Pharm. Sci., 83, 1026 (1994); for HP (hydration potential): ref Wolfenden et al., Biochemistry, 20, 849 (1981); for Hydropathy Index: hydrophobicity/hydrophilicity, ref Kyte & Doolittle, J. Mol. Biol., 157, 105 (1982)
[5] = Tm at 8 or 9 ligand concentrations fitted to Eq 1 (Schellman), fitted parameter ± s.e., read-out: DSF Kd-app
[6] = from ΔTm at 0.1 mM via Eq 1, T0 326.1 K
[7] = from ΔTm at 1 mM via Eq 1, T0 326.1 K
[8] = from ΔTm at 10 mM via Eq 1, T0 326.1 K
[9] = 5 mM amino acid, n = 6 (n = 12 for L-glutamine)
[10] = estimated from ΔRFU at 10 mM by Hill equation, ΔRFUmax 104.3, read-out: EC50-est
[11] = log 1/Kd-app, converted from S1 Table values (10 mM; L-Ala 1 mM, L-Gln 0.1 mM)
[12] = from response at 10 mM, log 1/EC50-est

SMILES: NC(=O)CC[C@H](N)C(=O)O [L-Gln, L-glutamine]
- ΔTm ([1]; 0.1 mM amino acid): 6.26 ± 0.06 K
- increase of Tm (ΔTm), second Tm ([1]; 300 μM ligand): 8.7 ± 0.1 °C
- ΔTm ([1]; 1 mM amino acid): 10.80 ± 0.05 K
- ΔTm ([1]; 10 mM amino acid): 13.6 ± 0.02 K
- Kd [1, 5]: 0.0309 ± 0.0058 mM
- potency estimated from few doses [1, 6]: 0.0141 mM
- potency estimated from few doses [1, 7]: 0.0292 mM
- potency estimated from few doses [1, 8]: 0.119 mM
- Kd ([1]; log 1/Kd-app, converted from S1 Table values (10 mM; L-Ala 1 mM, L-Gln 0.1 mM), read-out: pKd-app (converted)): 0.0141 mM
- EC50 [2]: 0.0115 ± 0.0034 mM
- ΔRFU [3, 9]: 104.3 ± 4.24
- ΔRFU ([3]; 5 mM amino acid, n = 6 (n = 12 for L-glutamine), listed as L-glutamine): 104.3
- ΔRFU ([3]; 10 mM amino acid, n = 6): 81.0 ± 4.64
- EC50 [3, 10]: 2.88 mM
- EC50 ([3]; from response at 10 mM, log 1/EC50-est, read-out: pEC50-est (converted)): 2.88 mM

SMILES: N[C@@H](CCC(=O)O)C(=O)O [L-Glu, glutamate]
- pI [4]: 3.22
- logKd_CW (polarity) [4]: 2.25
- Es'c (steric effects) [4]: -0.82
- πα (hydrophobicity) [4]: 0.02
- HP (hydration potential) [4]: -10.2
- ΔTm ([1]; 0.1 mM amino acid): 0.55 ± 0.26 K
- ΔTm ([1]; 1 mM amino acid): 0.48 ± 0.14 K
- ΔTm ([1]; 10 mM amino acid): 7.06 ± 0.08 K
- Kd [1, 5]: 0.422 ± 0.211 mM
- potency estimated from few doses [1, 6]: 0.488 mM
- potency estimated from few doses [1, 7]: 5.7 mM
- potency estimated from few doses [1, 8]: 1.05 mM
- pKd-app [1, 11]: 2.98
- EC50 [2]: 1.07 ± 0.382 mM
- ΔRFU [3, 9]: 3.73 ± 1.63
- ΔRFU ([3]; 10 mM amino acid, n = 6): 30.3 ± 1.85
- EC50 [3, 10]: 24.4 mM
- pEC50-est [3, 12]: 1.61

SMILES: CC[C@H](C)[C@H](N)C(=O)O [L-Ile]
- Hydropathy Index [4]: 4.5
- pI [4]: 6.02
- logKd_CW (polarity) [4]: -3.62
- Es'c (steric effects) [4]: -1.81
- πα (hydrophobicity) [4]: 1.43
- HP (hydration potential) [4]: 2.15
- ΔTm ([1]; 0.1 mM amino acid): -0.50 ± 0.11 K
- ΔTm ([1]; 1 mM amino acid): -0.57 ± 0.07 K
- ΔTm ([1]; 10 mM amino acid): 2.89 ± 2.40 K
- potency estimated from few doses [1, 8]: 6.04 mM
- pKd-app [1, 11]: 2.22
- ΔRFU [3, 9]: 2.90 ± 2.82
- ΔRFU ([3]; 10 mM amino acid, n = 6): 30.5 ± 6.26
- EC50 [3, 10]: 24.2 mM
- pEC50-est [3, 12]: 1.62

SMILES: NC(=O)C[C@H](N)C(=O)O [L-Asn]
- Hydropathy Index [4]: -3.5
- pI [4]: 5.41
- logKd_CW (polarity) [4]: 4.88
- Es'c (steric effects) [4]: -0.98
- πα (hydrophobicity) [4]: -0.52
- HP (hydration potential) [4]: -9.68
- ΔTm ([1]; 0.1 mM amino acid): 0.12 ± 0.07 K
- ΔTm ([1]; 1 mM amino acid): 0.38 ± 0.06 K
- ΔTm ([1]; 10 mM amino acid): 4.36 ± 0.99 K
- potency estimated from few doses [1, 6]: 2.4 mM
- potency estimated from few doses [1, 7]: 7.33 mM
- potency estimated from few doses [1, 8]: 3 mM
- pKd-app [1, 11]: 2.52
- ΔRFU [3, 9]: 0.460 ± 2.58
- ΔRFU ([3]; 10 mM amino acid, n = 6): 15.7 ± 6.13
- EC50 [3, 10]: 56.3 mM
- pEC50-est [3, 12]: 1.25

SMILES: N[C@@H](Cc1c[nH]cn1)C(=O)O [L-His]
- Hydropathy Index [4]: -3.2
- pI [4]: 7.59
- logKd_CW (polarity) [4]: 3.34
- Es'c (steric effects) [4]: -0.86
- πα (hydrophobicity) [4]: 0.17
- HP (hydration potential) [4]: -10.27
- ΔTm ([1]; 0.1 mM amino acid): -3.75 ± 0.33 K
- ΔTm ([1]; 1 mM amino acid): 1.21 ± 0.02 K
- ΔTm ([1]; 10 mM amino acid): 5.81 ± 0.07 K
- potency estimated from few doses [1, 7]: 1.96 mM
- potency estimated from few doses [1, 8]: 1.67 mM
- pKd-app [1, 11]: 2.78
- ΔRFU [3, 9]: 4.72 ± 2.39
- ΔRFU ([3]; 10 mM amino acid, n = 6): 14.4 ± 6.62
- EC50 [3, 10]: 62.4 mM
- pEC50-est [3, 12]: 1.20

SMILES: CC(C)[C@H](N)C(=O)O [L-Val]
- Hydropathy Index [4]: 4.2
- pI [4]: 5.96
- logKd_CW (polarity) [4]: -2.97
- Es'c (steric effects) [4]: -1.29
- πα (hydrophobicity) [4]: 1
- HP (hydration potential) [4]: 1.99
- ΔTm ([1]; 0.1 mM amino acid): 0.11 ± 0.24 K
- ΔTm ([1]; 1 mM amino acid): -0.77 ± 0.14 K
- ΔTm ([1]; 10 mM amino acid): 7.85 ± 0.03 K
- potency estimated from few doses [1, 6]: 2.63 mM
- potency estimated from few doses [1, 8]: 0.793 mM
- pKd-app [1, 11]: 3.10
- ΔRFU [3, 9]: 3.89 ± 1.23
- ΔRFU ([3]; 10 mM amino acid, n = 6): 32.4 ± 7.56
- EC50 [3, 10]: 22.2 mM
- pEC50-est [3, 12]: 1.65

SMILES: NCC(=O)O [Gly, glycine]
- ΔTm ([1]; 0.1 mM amino acid): -0.04 ± 0.12 K
- ΔTm ([1]; 1 mM amino acid): -0.15 ± 0.07 K
- ΔTm ([1]; 10 mM amino acid): 5.08 ± 0.06 K
- Kd [1, 5]: 3.57 ± 4.09 mM
- potency estimated from few doses [1, 8]: 2.22 mM
- pKd-app [1, 11]: 2.65
- EC50 [2]: 6.18 ± 3.32 mM
- ΔRFU [3, 9]: 13.4 ± 3.45
- ΔRFU ([3]; 10 mM amino acid, n = 6): 46.2 ± 9.00
- EC50 ([3]; estimated from ΔRFU at 5 mM by Hill equation, ΔRFUmax 104.3, read-out: EC50-est): 33.8 mM
- EC50 [3, 10]: 12.6 mM
- pEC50-est ([3]; from response at 5 mM, log 1/EC50-est): 1.47
- pEC50-est [3, 12]: 1.90

SMILES: CC(C)C[C@H](N)C(=O)O [L-Leu]
- logKd_CW (polarity) [4]: -3.62
- Es'c (steric effects) [4]: -1.44
- πα (hydrophobicity) [4]: 1.52
- HP (hydration potential) [4]: 2.28
- ΔTm ([1]; 0.1 mM amino acid): 0.08 ± 0.09 K
- ΔTm ([1]; 1 mM amino acid): -0.94 ± 0.07 K
- ΔTm ([1]; 10 mM amino acid): 6.91 ± 0.05 K
- potency estimated from few doses [1, 6]: 3.49 mM
- potency estimated from few doses [1, 8]: 1.11 mM
- pKd-app [1, 11]: 2.96
- ΔRFU [3, 9]: 0.933 ± 1.91
- ΔRFU ([3]; 10 mM amino acid, n = 6): 27.8 ± 5.89
- EC50 [3, 10]: 27.5 mM
- pEC50-est [3, 12]: 1.56
